Source: US20050197336A1 (Miikana Therapeutics Corporation, priority 2004, published 2005)

Legend:
[1] = system: MCF7 cells; test: Whole cell cytotoxicity assay: Sulforhodamine B; assay type: cell-based, human; conditions: Homo sapiens; compound at 100 μM; MCF7 cell growth; 48 hours with drug; SRB staining
Experimental: The following procedure can be found on the Developmental Therapeutics Program NCI/NIH web site at http://dtp.nci.nih.gov/brancehes/btb/ivclsp.html.
1. Human tumor cell lines of HT29, A549 and MCF7 are grown in DMEM containing 10% fetal bovine serum and 2 mM L-glutamine. Cells are plated in a 96 well plate at a density of 5000 cells per well in 100 μL of growth medium and incubated at 37° C., 5% CO2, for 24 hours prior to the addition of experimental compounds.
2. Experimental drugs are solubilized in DMSO for a final concentration of 20 mM immediately prior to use. Drugs are further diluted in growth media for a total of nine drug concentrations and a growth control. At the 24 hour time point, one plate of cells is fixed in situ with TCA as a measurement of the cell population at time zero, or the time of drug addition.
3. The plates are further incubated with drug for an additional 48 hours.
4. The cells are fixed in situ by gently aspirating off the culture media and then adding 50 μL of ice cold 10% TCA per well and incubated at 4° C. for 60 minutes. The plates are washed with tap water five times and allowed to air dry for 5 minute.
5. 50 μL of a 0.4% (w/v) Sulforhodamine B solution in 1% (v/v) acetic acid is added per well and incubated for 30 minutes at room temperature.
6. Following staining, plates are washed five times with 1% acetic acid to remove any unbound dye and then allowed to air dry for 5 minutes.
7. Stain is solubilized with 100 μL of 10 mM Tris pH 10.5 per well and placed on an orbital rotator for 5 minutes.
8. Absorbance is read at 570 nm.

[2] = system: Histone deacetylase (HDAC), HeLa cell nuclear extract; test: In vitro fluorescent histone deacetylase assay (Biomol kit, HeLa cell nuclear extract); assay type: biochemical; conditions: compound at 100 μM; HeLa cell nuclear extract as HDAC source; substrate 50 μM; 10 min at room temperature
Experimental: Histone deacetylase (HDAC) activity assays were performed using the HDAC fluorescent activity assay/drug discovery kit (Biomol Research Laboratories, Plymouth Meeting, Pa.) essentially according to the manufacturer's instructions. The included HeLa cell nuclear extract, which contains a mosaic of HDAC enzymes and other nuclear factors, was used as the source of HDAC activity. The final substrate concentration in the assay mixture was 50 μM. The reaction was allowed to proceed for 10 min at room temperature before stopping the reaction. Test compounds were prepared as 20 mM stock solutions in DMSO (Molecular Biology grade, Sigma-Aldrich Co. St. Louis, Mo.) and stored at −70° C. Serial dilutions of test compounds were prepared in assay buffer immediately prior to testing. DMSO was determined in a separate trial to have no significant effect on the activity of this assay at concentrations up to 5%; the final DMSO concentration in the wells was no more than 2% and therefore DMSO effects were safely neglected. Assays were performed in white polystyrene 96-well half-area assay plates (Corning, Corning, N.Y.) and measured on a Wallace 1420 fluorescent plate reader (Wallac Oy, Turku, Finland) with an excitation wavelength of 355 nm, an emission wavelength of 460 nm, and a 1 sec signal averaging time.

SMILES | inhibition at 100 µM [1] | % inhibition HDAC @ 100 μM [2]
O=C(NO)c1cnc(N2CCN(S(=O)(=O)c3ccc(-n4cccn4)cc3)CC2)s1 [Example 101, 2-[4-(4-pyrazolylbenzenesulfonyl)-piperazin-1-yl]-thiazole-5-carboxylic acid hydroxyamide] | 98.1% | 
O=C(NO)c1cnc(N2CCN(S(=O)(=O)c3cccc(-c4ccccc4)c3)CC2)s1 [Example 51, 2-[4-(3-biphenylsulfonyl)-piperazin-1-yl]-thiazole-5-carboxylic acid hydroxyamide] | 97% | 100%
O=C(NO)c1cnc(N2CCN(S(=O)(=O)c3ccc(F)c(F)c3)CC2)s1 [Example 36, 2-[4-(3,4-difluorophenylsulfonyl)-piperazin-1-yl]-thiazole-5-carboxylic acid hydroxyamide] | 98.2% | 98%
O=C(NO)c1cnc(N2CCN(S(=O)(=O)c3ccc(Br)s3)CC2)s1 [Example 55, 2-{4-[(5-bromothien-2-yl)sulfonyl]piperazin-1-yl}-N-hydroxy-1,3-thiazole-5-carboxamide] | 0% | 9%
O=C(NO)c1cnc(N2CCN(S(=O)(=O)c3ccc(-c4cccc(F)c4)cc3)CC2)s1 [Example 61] | 92.2% | 95%
CN(C)C(=O)c1ccc(-c2ccc(S(=O)(=O)N3CCN(c4ncc(C(=O)NO)s4)CC3)cc2)cc1 [Example 68, 2-[4-(4′-N,N-dimethylcarboxamido-1,1′-biphenylsulfonyl)piperazin-1-yl]-1,3-thiazole-5-carboxylic acid hydroxyamide] | 84.7% | 99%
COc1ccc(-c2ccc(S(=O)(=O)N3CCN(c4ncc(C(=O)NO)s4)CC3)cc2)cc1 [Example 63] | 93.3% | 98%
COc1ccc(S(=O)(=O)N2CCN(c3ncc(C(=O)NO)s3)CC2)cc1 [Example 103, 2-[4-(4-Methoxybenzenesulfonyl)piperazin-1-yl]-thiazole-5-carboxylic acid hydroxyamide] | 97.5% | 100%
Cc1ccccc1S(=O)(=O)N1CCN(c2ncc(C(=O)NO)s2)CC1 [Example 21, 2-[4-(2-methylphenylsulfonyl)piperazin-1-yl]-thiazole-5-carboxylic acid hydroxyamide] | 97.1% | 100%
CS(=O)(=O)c1ccc(S(=O)(=O)N2CCN(c3ncc(C(=O)NO)s3)CC2)cc1 [Example 19, 2-[4-(4-methylsufonylphenylsulfonyl)-piperazin-1-yl]-thiazole-5-carboxylic acid hydroxyamide] | 76.5% | 99%
O=C(NO)c1cnc(N2CCN(S(=O)(=O)c3ccc(-c4cncnc4)cc3)CC2)s1 [Example 91, 2-[4-{(4-pyrimidine)benzenesulfonyl}-piperazin-1-yl]-thiazole-5-carboxylic acid hydroxyamide] | 94.6% | 99%
O=C(NO)c1cnc(N2CCN(S(=O)(=O)c3ccc(-c4ccccc4)cc3)CC2)s1 [Example 9, 2-[4-(biphenyl-4-sulfonyl)-piperazin-1-yl]-thiazole-5-carboxylic acid hydroxyamide] | 97.7% | 97%
O=C(NO)c1cnc(N2CCN(S(=O)(=O)c3ccc4c(c3)CCO4)CC2)s1 [Example 42, 2-[4-(2,3-dihydrobenzofuransulfonyl)-piperazin-1-yl]-thiazole-5-carboxylic acid hydroxyamide] | 90% | 
CN(C)c1cccc(-c2ccc(S(=O)(=O)N3CCN(c4ncc(C(=O)NO)s4)CC3)cc2)c1 [Example 71, 2-[4-(3′-(dimethylamino)-1,1′-biphenylsulfonyl)piperazin-1-yl]-1,3-thiazole-5-carboxylic acid hydroxyamide] | 97.2% | 
O=C(NO)c1cnc(N2CCN(S(=O)(=O)c3ccc(Cl)c(Cl)c3)CC2)s1 [Example 15, 2-[4-(3,4-dichlorolphenylsulfonyl)-piperazin-1-yl]-thiazole-5-carboxylic acid hydroxyamide] | 88.5% | 
O=C(NO)c1cnc(N2CCN(S(=O)(=O)c3ccc(-c4ccc(C(=O)N5CCOCC5)cc4)cc3)CC2)s1 [Example 69, 2-[4-(4′-(morpholin-4-ylcarbonyl)-1,1′-biphenylsulfonyl)piperazin-1-yl]-1,3-thiazole-5-carboxylic acid hydroxyamide] | 87.7% | 
CC(=O)c1ccc(S(=O)(=O)N2CCN(c3ncc(C(=O)NO)s3)CC2)cc1 [Example 7, 2-[4-(4-acetyl-benzenesulfonyl)-piperazin-1-yl]-thiazole-5-carboxylic acid hydroxyamide] | 83.3% | 
CN(C)CCN(C)Cc1cccc(-c2ccc(S(=O)(=O)N3CCN(c4ncc(C(=O)NO)s4)CC3)cc2)c1 [Example 85, 2-{4-[3′-{[(2-(dimethylamino)ethyl)(methyl)amino]methyl}-1,1′-biphenylsulfonyl]piperazin-1-yl}-1,3-thiazole-5-carboxylic acid hydroxyamide] | 97.5% | 
O=C(NO)c1cnc(N2CCN(S(=O)(=O)c3ccc(C(F)(F)F)cc3)CC2)s1 [Example 5, 2-[4-(4-trifluoromethyl-benzenesulfonyl)-piperazin-1-yl]-thiazole-5-carboxylic acid hydroxyamide] | 97.9% | 
O=C(NO)c1cnc(N2CCN(S(=O)(=O)c3ccc(Cl)cc3)CC2)s1 [Example 54, 2-[4-(chlorophenalsulfonyl)-piperazin-1-yl]-thiazole-5-carboxylic acid hydroxyamide] | 97.1% | 
O=C(NO)c1cnc(N2CCN(S(=O)(=O)c3ccccc3Cl)CC2)s1 [Example 17, 2-[4-(2-chlorophenalsulfonyl)-piperazin-1-yl]-thiazole-5-carboxylic acid hydroxyamide] | 97.8% | 
O=C(NO)c1cnc(N2CCN(S(=O)(=O)c3ccc(-c4ccc[nH]4)cc3)CC2)s1 [Example 67, 2-(4-{[4-(1H-pyrrol-2-yl)phenyl]sulfonyl}piperazin-1-yl)-1,3-thiazole-5-carboxylic acid hydroxyamide] | 98% | 
CCc1ccc(S(=O)(=O)N2CCN(c3ncc(C(=O)NO)s3)CC2)cc1 [Example 100, 2-[4-(4-Ethylbenzenesulfonyl)piperazin-1-yl]-thiazole-5-carboxylic acid hydroxyamide] | 96.8% | 
O=C(NO)c1cnc(N2CCN(S(=O)(=O)c3cc(F)cc(F)c3)CC2)s1 [Example 52, 2-[4-(3,5-difluorophenylsulfonyl)-piperazin-1-yl]-thiazole-5-carboxylic acid hydroxyamide] | 97.3% | 
CS(=O)(=O)Nc1ccc(-c2ccc(S(=O)(=O)N3CCN(c4ncc(C(=O)NO)s4)CC3)cc2)cc1 [Example 70, 2-[4-(4′-methylsulfonylamino-1,1′-biphenylsulfonyl)piperazin-1-yl]-1,3-thiazole-5-carboxylic acid hydroxyamide] | 83.6% | 
O=C(NO)c1cnc(N2CCN(S(=O)(=O)c3ccc4c(c3)OCCO4)CC2)s1 [Example 44, 2-[4-(3,4-benzodioxansulfonyl)-piperazin-1-yl]-thiazole-5-carboxylic acid hydroxyamide] | 91.7% | 
